According to patent US9789096B2, “Methods and compositions for selective and targeted cancer therapy” (Board of Regents of the University of Texas System, priority 2013, dated 2017):
Where two headings read alike, the source gives them in different places.

Experiments:
H1819 = experiment: Cell viability dose-response, H1819; format: cell-based, human; details: for AC50: NCI-H1819, Table 8
Method: (§1) FIG. 6A. […] Cell viability is plotted vs. compound concentration. Compound was added to cells plated at 15% confluence in 96-well plates in RPMI-1640 media supplemented with 5% Fetal Bovine Serum and 2 mM L-Glutamine. After 4 days of incubation, ATP levels were measured using Cell Titer Glo (Promega). Data are presented as the average of 2 replicates ±SEM.
(§2) Selectivity may be measured by the half maximal inhibitory concentration (IC50), which, as used herein, is a measure of the effectiveness of a compound in killing cells. This quantitative measure indicates how much of a particular compound is needed to kill a particular cell population by half (e.g., as indicated by the amount of ATP). […] The IC50 can be determined by constructing a dose-response curve. The lower the IC50, the higher the potency, and the greater the difference between IC50 values for different cell lines (e.g., sensitive lines vs. insensitive lines, and sensitive lines vs. normal lines) the greater the selectivity. […]
(§3) With this information, we synthesized and tested a series of small molecules derived in conception from the oxalamide and chromone scaffold including N-acyl ureas, as shown in Tables 6-8. Each compound was tested in a 12-point dose-response study starting at 50 micromolar and decreasing in 3-fold increments to sub-nanomolar concentrations, in duplicate. Additionally, one or more additional cell line was tested in the same way.

H2122 = experiment: Cell viability dose-response, H2122; format: cell-based, human; details: for AC50: NCI-H2122, Table 8
Method: as §1, §2, §3

[1] = Homo sapiens, NCI-H1819, 12-point dose-response starting at 50 micromolar, 3-fold increments, in duplicate, read-out: toxicity data, H1819
[2] = Homo sapiens, NCI-H2122, 12-point dose-response starting at 50 micromolar, 3-fold increments, in duplicate, read-out: toxicity data, H2122
[3] = Homo sapiens, NCI-H2122, Tables 3 and 4, read-out: IC50 (uM) vs indicated non-small cell lung cancer cell line H2122
[4] = Homo sapiens, 12-point dose-response starting at 50 micromolar

| Structure (SMILES) | IC50 (H1819; [1]) [µM] | IC50 (H2122; [2]) [µM] | further results |
| --- | --- | --- | --- |
| COc1ccc(CCNC(=O)C(=O)Nc2ccc(OC)c(C)c2)cc1 [SW206970-1] | ≥ 49.5 | 0.809 | – |
| COc1ccc(CCNC(=O)C(=O)Nc2ccc(C)cc2OC)cc1 [SW206971-1] | ≥ 49.5 | ≥ 49.5 | – |
| COc1ccc2nc(NC(=O)c3ccc(C(=O)N4CCOCC4)cc3)sc2c1 [SW203731] | – | – | IC50 (H2122; [3]): 2.28 µM |
| COc1ccc2nc(NC(=O)c3ccc(C(=O)N4CCN(C)CC4)cc3)sc2c1 [SW203669] | – | – | IC50 (H2122; [3]): ≥ 49.5 µM |
| COc1ccc(CCNC(=O)C(=O)Nc2cnccn2)cc1 [SW208137-1-A] | ≥ 49.5 | ≥ 49.5 | – |
| Cc1ccccc1CCNC(=O)C(=O)Nc1ccc(Cl)cc1 [SW208027-1-A] | ≥ 49.5 | ≥ 49.5 | – |
| COc1ccc(CCNC(=O)C(=O)Nc2ccc(Cl)c(OC)c2)cc1 [SW206973-1] | 49 | ≥ 49.5 | – |
| O=c1c(Cc2ccc(F)cc2)coc2cc(OCc3cnn(-c4ccccc4)c3)ccc12 [SW209188-1] | – | – | AC50 (H1819; [4]): 49.5 µM; AC50 (H2122; [4]): 0.086 µM |
| COc1ccc(CCNC(=O)C(=O)N2CCCCC2)cc1 [SW208030-1-A] | ≥ 49.5 | ≥ 49.5 | – |
| C#CCOCCOCCOCCOCCOc1ccc2nc(NC(=O)c3ccc(C(=O)c4ccccc4)cc3)sc2c1 [SW203734] | – | – | IC50 (H2122; [3]): 0.939 µM |
| COc1ccc(CCCNC(=O)NCc2ccccc2)cc1 [SW208120-1-A] | ≥ 49.5 | 38.9 | – |
| O=C(NCCc1cccc(Cl)c1)C(=O)Nc1ccc(Cl)cc1 [SW208037-1-A] | ≥ 49.5 | ≥ 49.5 | – |
| COc1ccc(Nc2ccc(C(=O)Nc3nc4ccc(OC)cc4s3)cc2)cc1 [SW203671] | – | – | IC50 (H2122; [3]): 0.314 µM |
| COc1ccc(CCNC(=O)C(=O)N2Cc3ccccc3C2)cc1 [SW208058-1-A] | ≥ 49.5 | ≥ 49.5 | – |
| COc1ccc(CNC(=O)CNc2ccc(Cl)cc2)cc1 [SW208042-1-A] | ≥ 49.5 | ≥ 49.5 | – |
| COc1ccc(CCNC(=O)C(=O)Nc2ccc(OC)cc2C)cc1 [SW206968-1] | ≥ 49.5 | ≥ 49.5 | – |
| COc1ccc(CCNC(=O)C(=O)Nc2cc(Cl)cc(Cl)c2)cc1 [SW206891-2] | – | – | IC50 (H1819; 12-point dose-response starting at 50 micromolar, 3-fold increments, in duplicate, read-out: toxicity data, H1819): ≥ 49.5 µM; IC50 (H2122; 12-point dose-response starting at 50 micromolar, 3-fold increments, in duplicate, read-out: toxicity data, H2122): ≥ 49.5 µM |
| COc1ccc(CCNC(=O)C(=O)Nc2ccc(Br)cc2Br)cc1 [SW206888-1-A] | ≥ 49.5 | ≥ 49.5 | – |
| COc1ccc(CCNC(=O)C(=O)Nc2cncc(C)c2)cc1 [SW208140-1-A] | 16.5 | 2.62 | – |

| Structure (SMILES) | IC50 (H1819; [1]) [µM] | IC50 (H2122; [2]) [µM] | further results |
| --- | --- | --- | --- |
| COc1ccc(CCNC(=O)C(=O)N2CCc3ccccc32)cc1 [SW208059-1-A] | ≥ 49.5 | ≥ 49.5 | – |
| COc1ccc(CCNC(=O)C(=O)Nc2ccnc(C)c2)cc1 [SW208138-1-A] | ≥ 49.5 | ≥ 49.5 | – |
| COc1ccc(CCNC(=O)C(=O)Oc2ccccc2)cc1 [SW208147-1-A] | ≥ 49.5 | 2.07 | – |
| COc1ccc(CCNC(=O)C(=O)Nc2ccc(C)cc2F)cc1 [SW206883-1-A] | ≥ 49.5 | 0.727 | IC50 (H2122; Homo sapiens, NCI-H2122, Table 9, competitor, read-out: IC50 to H2122 cells): 0.5 µM |
| C#CCOc1ccc(C(=O)c2ccc(NC(=O)C(=O)NCCc3ccc(OC)cc3)cc2)cc1 [SW208108-1-A] | ≥ 49.5 | 0.028 | – |
| COc1ccc(CCNC(=O)C(=O)Nc2cccnc2F)cc1 [SW208133-1-A] | ≥ 49.5 | ≥ 49.5 | – |
| COc1ccc(CCNC(=O)C(=O)Nc2ccccc2F)cc1 [SW027962-2-A] | ≥ 49.5 | ≥ 49.5 | – |
| COc1ccc(CCNC(=O)COc2ccc(Cl)cc2)cc1 [SW208038-1-A] | ≥ 49.5 | ≥ 49.5 | – |
| COc1ccc(CCNC(=O)c2ccc3cccc(F)c3n2)cc1 [SW208055-1-A] | ≥ 49.5 | ≥ 49.5 | – |
| COc1ccc(CCNC(=O)C(=O)Nc2cc(F)c(Br)c(F)c2)cc1 [SW206872-1-A] | ≥ 49.5 | ≥ 49.5 | – |
| COc1ccc(CCNC(=O)C(=O)NN2CCCCC2)cc1 [SW208129-1-A] | ≥ 49.5 | ≥ 49.5 | – |
| COc1ccc(CCNC(=O)C(=O)NC2CCCCCC2)cc1 [SW208035-1-A] | ≥ 49.5 | ≥ 49.5 | – |
| COc1ccc(CCNC(=O)C(=O)NC2CCCCC2)cc1 [SW208034-1-A] | ≥ 49.5 | ≥ 49.5 | – |
| COc1ccc(CNC(=O)C(=O)NCc2ccc(Cl)cc2)cc1 [SW208026-1-A] | ≥ 49.5 | ≥ 49.5 | – |
| COc1ccc(CCNC(=O)C(=O)N(C)c2cccc(F)c2)cc1 [SW208028-1-A] | ≥ 49.5 | ≥ 49.5 | – |
| COc1ccc(CCNC(=O)C(=O)Nc2c(Br)cccc2Br)cc1 [SW206887-1-A] | ≥ 49.5 | ≥ 49.5 | – |
| O=C(NCCc1ccc(F)cc1)C(=O)Nc1ccc(Cl)cc1 [SW208039-1-A] | ≥ 49.5 | 47.5 | – |
| COc1ccc(CNC(=O)Nc2ccc(Cl)cc2)cc1 [SW208046-1-A] | ≥ 49.5 | ≥ 49.5 | – |
| O=c1c(Cc2cccc(C(F)(F)F)c2)coc2cc(OCc3cnn(-c4ccccc4)c3)ccc12 [SW209186-1] | – | – | AC50 (H1819; [4]): 49.5 µM; AC50 (H2122; [4]): 0.047 µM |

| Structure (SMILES) | IC50 (H1819; [1]) [µM] | IC50 (H2122; [2]) [µM] | further results |
| --- | --- | --- | --- |
| Cc1ccc(Cc2coc3cc(OCc4cnn(-c5ccccc5)c4)ccc3c2=O)cc1 [SW209190-1] | – | – | AC50 (H1819; [4]): 49.5 µM; AC50 (H2122; [4]): 0.092 µM |
| COc1ccc(CCNC(=O)C(=O)Nc2ccccc2)cc1 [SW206967-1] | ≥ 49.5 | 0.456 | – |
| O=c1c(Cc2ccc(Br)cc2)coc2cc(OCc3cnn(-c4ccccc4)c3)ccc12 [SW209191-1] | – | – | AC50 (H1819; [4]): 49.5 µM; AC50 (H2122; [4]): 0.087 µM |
| COc1ccc(CCNC(=O)C(=O)Nc2cc(Cl)c(Br)c(Cl)c2)cc1 [SW206875-1-A] | 17.8 | 25.3 | – |
| COc1ccc(CCNC(=O)C(=O)Nc2cc(C)cnc2Cl)cc1 [SW208144-1-A] | ≥ 49.5 | ≥ 49.5 | – |
| COc1ccc(CCNC(=O)C(=O)Nc2ccc(Cl)c(C)c2)cc1 [SW206974-1] | ≥ 49.5 | 0.697 | – |
| COc1ccc(CCNC(=O)C(=O)Nc2cc(F)ccc2F)cc1 [SW206884-1-A] | ≥ 49.5 | ≥ 49.5 | – |
| COc1ccc2nc(NC(=O)c3ccc(Nc4ccccc4)cc3)sc2c1 [SW203670] | – | – | IC50 (H2122; [3]): 0.108 µM |
| COc1ccc2nc(NC(=O)c3ccc(N=[N+]=[N-])cc3)sc2c1 [SW203728] | – | – | IC50 (H2122; [3]): 0.12 µM |
| COc1ccc2nc(NS(=O)(=O)c3ccc4c(c3)OCCO4)sc2c1 [SW202748] | – | – | IC50 (H1819; Homo sapiens, NCI-H1819, Tables 3 and 4, read-out: IC50 (uM) vs indicated non-small cell lung cancer cell line H1819): 69 µM |
| COc1ccc2nc(NC(=O)c3ccc(C(=O)c4ccccn4)cc3)sc2c1 [SW203727] | – | – | IC50 (H2122; [3]): 0.016 µM |
| COc1ccc2nc(NC(=O)c3ccc(C(=O)c4cccnc4)cc3)sc2c1 [SW203733] | – | – | IC50 (H2122; [3]): 0.017 µM |
| C#CCOc1ccc2nc(NC(=O)c3ccc(C(=O)c4ccccc4)cc3)sc2c1 [SW202868] | – | – | IC50 (H2122; [3]): 0.005 µM |
| COc1ccc2nc(NC(=O)c3ccc(C(O)c4ccccc4)cc3)sc2c1 (stereo not drawn) [SW207003] | – | – | IC50 (H2122; [3]): 0.006 µM |
| COc1ccc2nc(NC(=O)c3ccc(C(=O)N4CCCCC4)cc3)sc2c1 [SW203730] | – | – | IC50 (H2122; [3]): 0.845 µM |
| COc1ccc2nc(NC(=O)c3ccc(C(O)c4ccccn4)cc3)sc2c1 (stereo not drawn) [SW203726] | – | – | IC50 (H2122; [3]): 0.029 µM |
| COc1ccc2nc(NC(=O)c3ccc(C(=O)NCc4ccccc4)cc3)sc2c1 [SW203732] | – | – | IC50 (H2122; [3]): 0.013 µM |
| C#CCOc1ccc(CCNC(=O)C(=O)Nc2ccc(C(=O)c3ccccc3)cc2)cc1 [SW207038] | – | – | IC50 (H2122; Homo sapiens, NCI-H2122, cell prints its own unit, 12-point dose-response starting at 50 micromolar, read-out: toxicity data, H2122): > 1 µM |
| COc1ccc2nc(NC(=O)c3ccc(C(O)c4ccncc4)cc3)sc2c1 (stereo not drawn) [SW203735] | – | – | IC50 (H2122; [3]): 0.036 µM |
